The record followed here is US7709497B2, “Pyrazolo[3,4-b]pyridine compound, and its use as a PDE4 inhibitor” (Glaxo Group Limited, priority 2004, dated 2010).

Assay [1] has as its system TNF-α (TNF-alpha) production in Human PBMC (Peripheral Blood Mononuclear Cell). As to the kind of experiment: Inhibition of TNF-α production in Human PBMC assay. It counts as cell-based. To be noted: LPS-stimulated, n=9, read-out: Inhibition of TNF-α production in PBMCs pIC50 (converted). The method, then: (§1) Test compounds are prepared as a ca. 10 mM stock solution in DMSO and a dilution series prepared in DMSO with 8 successive 3-fold dilutions, either directly from the 10 mM stock solution or from a more dilute solution in DMSO. The compound is added to assay plates using a Biomek Fx liquid handling robot.
PBMC cells (peripheral blood mononuclear cells) are prepared from heparinised human blood from normal volunteers by centrifugation on histopaque at ca. 1000 g for ca. 30 minutes. The cells are collected from the interface, washed by centrifugation (ca. 1300 g, ca. 10 minutes) and resuspended in assay buffer (RPMI 1640 containing 10% foetal calf serum, 1% L-glutamine and 1% penicillin/streptomycin) at 1×10^6 cells/ml. Ca. 50 μl (ca. 50 ul) cells are added to microtitre wells containing ca. 0.5 or ca/1.0 μl (ul) of an appropriately diluted compound solution. Ca. […] The supernatant is removed and the concentrations of TNF are determined by electrochemiluminescence assay using the IGEN technology or by ELISA (see below).
(§2) Ca. […] 50 μl (ul) of streptavidin/biotinylated anti-TNF-α antibody mix, ca. 25 μl ruthenium tagged anti-TNF-α monoclonal and ca. 100 μl PBS containing 0.1% bovine serum albumin are added to each well and the plates are sealed and shaken for ca. 2 hours before being read on an IGEN instrument. […]

In assay [2] the target is PDE5 (human recombinant) (Homo sapiens, UniProt O76074). The assay is described as follows: PDE5 inhibition (SPA or modified FP assay). The assay is classed as biochemical. To be noted: n = 1; accuracy ±about 0.5 log unit; read-out: PDE5 pIC50 (converted). An excerpt:
Human recombinant PDE5 is disclosed in K. Loughney et al., “Isolation and characterisation of cDNAs encoding PDE5A, a human cGMP-binding, cGMP-specific 3′,5′-cyclic nucleotide phosphodiesterase”, Gene, 1998, 216, 139-147.
The ability of compounds to inhibit catalytic activity at PDE4B or 4D (human recombinant), PDE3 (from bovine aorta), PDE5 (human recombinant) or PDE6 (from bovine retina) can optionally be determined by Scintillation Proximity Assay (SPA) in a 96-well format.
Test compounds (as a solution in DMSO, preferably about 2 microliters (ul) volume of DMSO solution) are preincubated at ambient temperature (room temperature, e.g. 19-23° C.) in Wallac Isoplates (code 1450-514) with PDE enzyme in 50 mM Tris-HCl buffer pH 7.5, 8.3 mM MgCl2, 1.7 mM EGTA, 0.05% (w/v) bovine serum albumin for 10-30 minutes (usually 30 minutes). The enzyme concentration is adjusted so that no more than 20% hydrolysis of the substrate defined below occurs in control wells without compound, during the incubation. […] Bound radioactive product is measured using a WALLAC TRILUX 1450 Microbeta scintillation counter. […] Curves are analysed using ActivityBase and XLfit (ID Business Solutions Limited, 2 Ocean Court, Surrey Research Park, Guildford, Surrey GU2 7QB, United Kingdom) Results are expressed as pIC50 values. […]

The test system of assay [3] is TNF-α (TNF-alpha) production in Human Whole Blood. As to the kind of experiment: Inhibition of TNF-α production in Human Whole Blood. It counts as cell-based. To be noted: LPS-stimulated, n=6, read-out: Inhibition of TNF-α production in Human Whole Blood pIC50 (converted). The method, then:
This is an optional supplementary test, e.g. for potentially orally-administrable PDE4 inhibitors. Also, as the assay measures the effect of PDE4 inhibitors after loss by protein binding, it might also be relevant to externally-topically-administrable PDE4 inhibitors as protein-binding-loss of compound is possible during transport through the skin.
as §1
Heparinised blood drawn from normal volunteers is dispensed (ca. 100 μl=ca. 100 ul) into microtitre plate wells containing ca. 0.5 or ca. 1.0 μl (ul, microliters) of an appropriately diluted test compound solution. […] Plasma TNFα content is determined by electrochemiluminescence assay using the IGEN technology (see below) or by enzyme linked immunosorbant assay (ELISA) (see below).
as §2

As to `CCn1ncc2c(NC3CCN(C(N)=O)CC3)c(C(=O)NCc3ccc(C)c(C)c3)cnc21` [compound of formula (I), 4-{[1-(aminocarbonyl)-4-piperidinyl]amino}-N-[(3,4-dimethylphenyl)methyl]-1-ethyl-1H-pyrazolo[3,4-b]pyridine-5-carboxamide], the values for the IC50 in assay [1], in assay [2] and in assay [3] were 1.82 nM, 490 nM and 7.41 nM, respectively.
